Laboratory results taken from article PMC12583704 (Signal Transduction and Targeted Therapy, 2025).

Experiments:
[1] = tested on: bone marrow cells; set-up: method as in HQP1351 SJ0003 Protocol; settings: ref HQP1351 SJ0003 Protocol; cited from earlier work
[2] = SJ-0003 interim safety analysis
Method: Given once every other day, […]
efficacy as primary or secondary endpoints. The data cutoff date for SJ -0002, CC201, and […]
Data were obtained from 36 GIST […]
cohorts (20 mg QOD, 30 mg QOD, 40 mg QOD, and 50 mg QOD), and the safety analysis was based on a combination of the 4 dose groups. […]

[3] = tested on: c-KIT V559D mutation; set-up: method as in HQP1351 SJ0003 Protocol; settings: ref HQP1351 SJ0003 Protocol; cited from earlier work
[4] = set-up: method as in HQP1351 SJ0003 Protocol; settings: ref HQP1351 SJ0003 Protocol; cited from earlier work

## Cc1ccc(C(=O)Nc2ccc(CN3CCN(C)CC3)c(C(F)(F)F)c2)cc1C#Cc1cnc2[nH]ncc2c1 [Olverembatinib, 3-[(1H-pyrazolo[3,4-b]pyridin-5-yl)ethynyl]-4-methyl-N-{4-[(4-methylpiperazin-1-yl)methyl]-3-(trifluoromethyl)phenyl]benzamide]
[1]
  genotoxicity on bone marrow cells: no
[2]; 36 GIST subjects, assessed as unlikely related to the drug
  subjects who experienced fatal AEs: 11%
[2]; human, in vivo
  TEAE: Abdominal pain: 22.2%
  TEAE: Alanine aminotransferase increased: 25.0%
  TEAE: Anemia: 41.7%
  TEAE: Aspartate aminotransferase increased: 33.3%
  TEAE: C-reactive protein increased: 22.2%
  TEAE: Constipation: 44.4%
  TEAE: Hyperuricemia: 33.3%
  TEAE: Neutrophil count increased: 52.8%
  TEAE: asthma: 38.9%
  TEAE: hypoproteinemia: 27.8%
  TEAE: serum creatinine increased: 25.0%
  TEAE: white blood cell count increased: 63.9%
  subjects who discontinued treatment due to AEs: 5 (14%) n (%)
  subjects with at least one TEAE: 100%
  subjects with at least one serious adverse event (SAE): 28%
[3]
  inhibition rate: > 90%
[4]
  unchanged drug oxidized NADPH-dependently: Less than 20%
